Series [1] has as its system CYP3A4. On the set-up: method as in Cai et al, 2007. To be noted: in vitro liver microsome systems, ref Cai et al, 2007, cited from earlier work.
In series [2] the test system is CYP3A4. To be noted: read-out: Ki for inhibition of the metabolism of sirolimus; reference not given; cited from earlier work.
A short description of series [3]: Drug interaction study: whole blood pharmacokinetics of temsirolimus and sirolimus after single 5-mg i.v. temsirolimus alone or with oral ketoconazole. The series is classed as in vivo, human. Conditions: for Intersubject variability, CV for Cmax and AUC: both treatment periods; for Cmax / AUC / AUC(0-t) / Vd / half-life / Tmax / clearance: human; for Cmax / AUC / AUC(0-t) / Vd / half-life / Tmax / T1/2 / clearance / CL / Vss: whole blood. On the procedure:
(§1) In this open-label, non-randomised, single-centre, two-period, sequential study, subjects received temsirolimus (Torisel™; Wyeth Pharmaceuticals, Philadelphia, PA, USA) alone, followed by temsirolimus in combination with ketoconazole after a 14-day washout period. On study day 1 of the first period, subjects received 25 mg i.v. diphenhydramine, followed 30 min later by 5 mg i.v. temsirolimus over 30 min. Subjects remained in the clinical unit until the 72-h blood collection (study day 4) and returned for subsequent blood draws at designated time points over the next 4 days (study days 5–8). Study days 9 through 13 were part of the washout period. During the second period, subjects returned to the clinical unit on study day 14. On study day 15, they received 400 mg oral ketoconazole, followed 90 min later by a 25-mg i.v. dose of diphenhydramine. Thirty minutes later, subjects were administered a 30-min i.v. infusion of 5 mg temsirolimus. Subjects remained in the clinical unit until the 72-h blood draw (study day 18) and returned for all subsequent blood draws. They continued to take 400 mg ketoconazole orally each day through study day 21. Subjects fasted for 10 h before receiving temsirolimus and for 4 h afterward.
Blood samples were collected predose, immediately before the end of the infusion (0.5 h), and at 1, 3, 8, 24, 48, 72, 96, 120, 144, and 168 h after administration of temsirolimus on study days 1 and 15. Samples were collected in evacuated tubes containing ethylenediaminetetraacetic acid (EDTA) and gently mixed, then stored upright at −70°C until shipment.
Analytes and internal standard were extracted from a 1-ml sample of EDTA-treated whole blood by liquid–liquid extraction with 1-chlorobutane and separated with a YMC PDS AQ HPLC column (Waters, Milford, MA, USA). Analytes were detected by tandem mass spectrometry using atmospheric pressure chemical ionisation. The concentration of analytes was determined with calibration standards using linear least squares regression.
Pharmacokinetic parameters for temsirolimus were analysed for each subject for each study period using non-compartmental methods ([Jusko, 1992]). Scheduled times were used for all calculations. The Cmax and the time to reach Cmax (Tmax) were determined visually from the concentration–time curves. The terminal elimination rate constant, λz, was estimated by log-linear regression of the terminal portion of the whole blood concentration–time curves. The terminal elimination half-life (T1/2) was calculated as 0.693/λz. The area under the concentration–time curve (AUCT) was calculated using the trapezoidal rule for the ascending portion of the curve, and the log-trapezoidal rule for the descending portion of the curve. […] Clearance (CL) is the volume of plasma cleared of the drug per unit time (dose/AUC). Apparent clearance was corrected for the fraction of the dose that was metabolised (CL/fm). The apparent volume of distribution during the terminal phase (Vz) was calculated by (CL/fm)/λz. The calculation of the steady-state volume of distribution (Vdss) incorporated dissociation and association rates of protein and tissue binding. Vdss was defined as (dose/AUC)MRTu, where MRTu is the mean residence time of the unbound drug in the plasma ([Berezhkovskiy, 2004]).
(§2) The geometric mean relative bioavailability of Cmax, AUC, and AUCT and the 90% confidence limits were calculated using ANOVA to determine the magnitude of the effect of ketoconazole. Vital signs, ECG intervals, and laboratory parameters were screened for prespecified, potentially clinically important criteria.

Details of series [4]: method as in Boni et al, 2007. Conditions: healthy adults; with rifampin; ref Boni et al, 2007; cited from earlier work.
On the set-up of series [5]: method as in Atkins et al, 2004. To be noted: ref Atkins et al, 2004, cited from earlier work.
Details of series [6]: method as in Punt et al, 2003. Conditions: stored at −70°C; ref Punt et al, 2003; cited from earlier work.
Details of series [7]: method as in Boni et al, 2007. To be noted: cancer patients; ref Boni et al, 2007; cited from earlier work.
On the set-up of series [8]: method as in Zimmerman, 2004. Conditions: oral sirolimus; ref Zimmerman, 2004; cited from earlier work.
Series [9] in a line: Safety: treatment-emergent adverse events in healthy subjects receiving temsirolimus alone or with ketoconazole. The series is classed as in vivo, human. How it is done:
as §1, §2

Setting [10] is: 5 mg i.v. temsirolimus + 400 mg oral ketoconazole vs temsirolimus alone.
Setting [11] is: 5 mg i.v. temsirolimus + ketoconazole vs temsirolimus alone.
[12] abbreviates: intravenous, single 5 mg i.v. temsirolimus + ketoconazole 400 mg oral, healthy subjects, mean (CV).
Setting [13] is: intravenous, single 5 mg i.v. temsirolimus + ketoconazole 400 mg oral, mean (CV).
Where [14] appears, read: iv, single 5 mg i.v. temsirolimus alone, healthy subjects, mean (CV).
[15] abbreviates: iv, single 5 mg i.v. temsirolimus alone, mean (CV).
The mark [16] stands for this setting: iv, 5 mg, 5 mg i.v. temsirolimus, irrespective of treatment (with or without ketoconazole), read-out: Time to maximal concentration.
[17] abbreviates: iv, 5 mg, single 5 mg i.v. temsirolimus alone, mean (CV).
The mark [18] stands for this setting: iv, 5 mg, single 5 mg i.v. temsirolimus alone, mean (CV), read-out: Tmax.
The mark [19] stands for this setting: single 5 mg i.v. temsirolimus + ketoconazole 400 mg oral, mean (CV).
The mark [20] stands for this setting: single 5 mg i.v. temsirolimus alone, mean (CV).
Setting [21] is: with ketoconazole relative to single 5-mg i.v. temsirolimus alone, 90% CI in brackets.
Where [22] appears, read: single 25-mg dose of temsirolimus, patients with RCC, CV=17%.

SMILES strings stand for the structures. Several values for one entry are separate records, joined by “and”; a condition that tells them apart may be missing. Identical values can stand only once. Entries after “also recorded” stand apart in the source; their conditions may differ. Like-named read-outs stand apart in the source and are kept apart here. Some results are limits rather than exact numbers.

As usually defined, the IC50 is the point on the concentration scale where inhibition reaches its midpoint. As a reminder, the Ki is a dissociation constant, usually derived from enzyme kinetics or from competition with a known ligand. For orientation: Cmax means the maximum level reached in the sampled fluid or tissue. Broadly, the AUC is concentration integrated over time. The AUC(0-t) is exposure summed from dosing to a finite time, without extrapolation to infinity. For orientation: half-life means how long it takes for the measured level to halve.

`CC(=O)N1CCN(c2ccc(OCC3COC(Cn4ccnc4)(c4ccc(Cl)cc4Cl)O3)cc2)CC1` (stereo not drawn) [Ketoconazole]: the “Formation of temsirolimus metabolites, % of control levels” value in the series on CYP3A4 [1] was […]. In the series with CYP3A4 [1] (read-out: IC50 for formation of temsirolimus metabolites), the IC50 was […]. In addition, the Ki in the series with CYP3A4 [2] was […].
Turning to `CO[C@H]1C[C@@H]2CC[C@@H](C)[C@@](O)(O2)C(=O)C(=O)N2CCCC[C@H]2C(=O)O[C@H]([C@H](C)C[C@@H]2CC[C@@H](O)[C@H](OC)C2)CC(=O)[C@H](C)/C=C(\C)[C@@H](O)[C@@H](OC)C(=O)[C@H](C)C[C@H](C)/C=C/C=C/C=C/1C` [Sirolimus], the “Increase in mean AUC with ketoconazole compared with temsirolimus alone” value in series [3] (setting [10]) is 3.1 fold and 3.2 fold. For the same molecule, in series [3] (setting [10]), the “Increase in mean Cmax with ketoconazole compared with temsirolimus alone” value is 2.2 fold. Moreover, the “Decrease in mean apparent metabolic clearance (CL/fm) with ketoconazole” value in series [3] (setting [11]) is listed as 3.2 fold. Moreover, in [3], the “Intersubject variability, CV for Cmax and AUC” value is on record as less than 33%. Further, the Cmax in series [3] (setting [12]) was 29 ng/mL; in [3] (setting [14]) it was 13.3 ng/mL. For the same molecule, the AUC in series [3] (setting [13]) came to 3890 ng·h/mL; in series [3] (setting [15]), 1200 ng·h/mL. Besides, the AUC(0-t) came out at 2410 ng·h/mL in [3] (setting [13]) and 918 ng·h/mL in [3] (setting [15]). Moreover, the Vd in series [3] (intravenous, metabolite sirolimus, single 5 mg i.v. temsirolimus + ketoconazole 400 mg oral, mean (CV), read-out: Vss/fm) was 227 L; in series [3] (intravenous, metabolite sirolimus, single 5 mg i.v. temsirolimus + ketoconazole 400 mg oral, mean (CV), read-out: Vz/fm), 220 L; in series [3] (iv, 5 mg, metabolite sirolimus, single 5 mg i.v. temsirolimus alone, mean (CV), read-out: Vss/fm), 494 L; in [3] (iv, 5 mg, metabolite sirolimus, single 5 mg i.v. temsirolimus alone, mean (CV), read-out: Vz/fm), 480 L. Further, the half-life was 113 h in [3] (setting [13]) and 75 h in series [3] (setting [17]). For the same molecule, the Tmax in [3] (setting [16]) came to 3 h; in series [3] (setting [18]), 3.3 h. In addition, in series [3] (metabolite sirolimus, 5 mg i.v. temsirolimus + ketoconazole vs temsirolimus alone), the “Reduction in apparent clearance with ketoconazole” value came to 69%. In addition, the “Carryover from treatment period 1 to 2, contribution to mean total AUC” value in [3] (period 2, mean) was determined as 1.9%. The “Carryover from treatment period 1 to 2, contribution to total AUC, range” value in series [3] (period 2, range) is listed as 1.1–3.7%. Further, the values for the T1/2 in series [3] (setting [19]) and in series [3] (setting [20]) were 112.8 (18.1%) h and 74.8 (10.8%) h, respectively. Further, in series [4], the “Reduction of AUC by rifampin” value is reported as 56%. Moreover, in [5] (after temsirolimus), the “Cmax as % of temsirolimus Cmax values” was 10–20%. Also, the “Stability in whole blood” value in series [6] was “stable”. The “Reduction in AUC with concomitant enzyme-inducing anticonvulsant agents” value in [7] was 45%. In addition, the “Reduction in Cmax with concomitant enzyme-inducing anticonvulsant agents” value in [7] is recorded as 67%. In addition, in [8], the “Increase in blood levels with ketoconazole” value is recorded as roughly 10 fold.
Consider `CO[C@H]1C[C@@H]2CC[C@@H](C)[C@@](O)(O2)C(=O)C(=O)N2CCCC[C@H]2C(=O)O[C@H]([C@H](C)C[C@@H]2CC[C@@H](OC(=O)C(C)(CO)CO)[C@H](OC)C2)CC(=O)[C@H](C)/C=C(\C)[C@@H](O)[C@@H](OC)C(=O)[C@H](C)C[C@H](C)/C=C/C=C/C=C/1C` [Temsirolimus], for which, in series [9] (human, in vivo), the Tolerability result was “well tolerated”. Besides, the “Herpes simplex (skin and appendages)” value is recorded as 0 n (%) in series [9] (temsirolimus 5 mg + ketoconazole 400 mg, n=14) and 1 (5.9) n (%) in [9] (temsirolimus 5 mg alone, n=17). For the same molecule, in series [9] (temsirolimus alone and with ketoconazole), the “Deaths or serious adverse events” value was “No deaths or serious adverse events”. The “Decrease in mean clearance with ketoconazole” value in [3] (setting [11]) is “approximately 10%”. Also, the “Effect of ketoconazole coadministration on Cmax or AUC” value in [3] (400 mg oral ketoconazole with 5 mg i.v. temsirolimus, healthy subjects) is listed as “no significant effect; also recorded: No substantial differences”. Further, the “Intersubject variability, CV for Cmax and AUC” value in series [3] is reported as less than 16%. In addition, the figures for the Cmax in [3] (setting [12]) and in series [3] (setting [14]) were 263 ng/mL and 278 ng/mL, respectively. The results for the AUC in series [3] (setting [13]) and in series [3] (setting [15]) were 992 ng·h/mL and 886 ng·h/mL, respectively. For the same molecule, the AUC(0-t) in [3] (setting [13]) is 969 ng·h/mL; in [3] (setting [15]), 873 ng·h/mL. The clearance in series [3] (setting [13]) was 85.7 mL/min; in series [3] (setting [17]) it was 95.3 mL/min. The figures for the half-life in series [3] (setting [13]) and in [3] (setting [17]) were 23.7 h and 22.3 h, respectively. Further, the Tmax in [3] (intravenous, single 5 mg i.v. temsirolimus + ketoconazole 400 mg oral, mean (CV), read-out: Tmax) worked out at 0.5 h; in [3] (setting [16]), 0.5 h; in series [3] (setting [18]), 0.5 h. For the same molecule, the Vd was 92 L in series [3] (intravenous, single 5 mg i.v. temsirolimus + ketoconazole 400 mg oral, mean (CV), read-out: Vss); 174 L in series [3] (intravenous, single 5 mg i.v. temsirolimus + ketoconazole 400 mg oral, mean (CV), read-out: Vz); 87 L in [3] (iv, 5 mg, single 5 mg i.v. temsirolimus alone, mean (CV), read-out: Vss); 182 L in series [3] (iv, 5 mg, single 5 mg i.v. temsirolimus alone, mean (CV), read-out: Vz). Also, the results for the CL in [3] (setting [19]) and in series [3] (setting [20]) were 5.1 (13.8%) l h^−1 and 5.7 (11.0%) l h^−1, respectively. The Vss in series [3] (setting [19]) was 91.5 (17.5%) l; in [3] (setting [20]), 86.8 (14.6%) l. Further, the “Least squares geometric mean ratio for AUC” value in series [3] (setting [21]) was 110%. In addition, the “Least squares geometric mean ratio for AUCT” value in [3] (setting [21]) is on record as 109%. In addition, in [3] (setting [21]), the “Least squares geometric mean ratio for Cmax” value stood at 94%. For the same molecule, the “90% CIs for the least squares geometric mean ratios of Cmax, AUCT, and AUC” value in [3] (with ketoconazole vs temsirolimus alone) is given as 80–125%. Further, the “Effect of rifampin on AUC” value in series [4] is given as “no effect”. For the same molecule, the “Mean area under the curve (AUC)” value in series [5] (setting [22]) was 1580 ng·h/mL. Besides, in [5] (setting [22]), the “Mean maximum concentration (Cmax) in whole blood” value is 595 ng/mL. Moreover, the “Stability in whole blood” value in series [6] is given as “stable”. The “Reduction in Cmax with concomitant enzyme-inducing anticonvulsant agents” value in series [7] is recorded as 36%.

Values taken from PMC2410110, “Differential effects of ketoconazole on exposure to temsirolimus following intravenous infusion of temsirolimus” (British Journal of Cancer, 2008).
